Source: article PMC6060383, “Synthesis and pharmacological evaluation of novel isoquinoline N-sulphonylhydrazones designed as ROCK inhibitors” (Journal of Enzyme Inhibition and Medicinal Chemistry, 2018)
Values after ≈ are worked out from the molar mass of the structure shown. “Also recorded” adds a separate entry of the source.

What was measured:
MDA-MB 231 cells [1] = experiment: Plasma membrane integrity assay (LDH); type: cell-based, human; conditions: 0.1 to 30 µM, 24 and 48 h
Method: (§1) The human mammary gland/breast epithelial cell line MDA-MB 231 was obtained from the American Type Culture Collection (ATCC® HTB-26™) and this use was approved by the Ethics Committee for Animal Care and Use in Scientific Research from the Federal University of Rio de Janeiro. Cells were routinely grown in RPMI medium containing 10% foetal bovine serum (FBS), 1% L-glutamine and 1% penicillin-streptomycin, in a humidified 5% CO2 atmosphere at 37 °C. Cells were cultured up to 70–100% confluence and then some cultures were treated with the compounds at different concentrations for 24 or 48 h. All cell culture reagents were purchased from Invitrogen (São Paulo, Brazil).
To measure plasma membrane integrity, we assayed serum lactate dehydrogenase (LDH) levels and calculated percentages of LDH release to the medium. LDH activity was measured spectrophotometrically using a commercial kit (Doles, Goiás, Brazil). […] Then, 10 μl of NAD were added and absorbance intensities were measured in a microplate reader (FlexStation® 3 Reader, Molecular Devices) at 490 nm. The percentage of LDH release was calculated by ([LDH] sample ×100)/total [LDH]. […]
We also analysed the plasma membrane integrity by measuring the serum lactate dehydrogenase (LDH) levels in the culture medium to confirm the cell viability data. […]

[2] = Water solubility assay (UV spectrophotometric method); type: physicochemical; conditions: aqueous buffer, thermodynamic from solid, water (buffer pH 7.4), stirring 4 h at 37 °C
Method: The solubility assay was performed considering the absorptivity of compounds under ultraviolet spectroscopy as described by Schneider et al.[20] Assay wavelength was determined through λmax characteristic of each compound. Saturated aqueous solutions were prepared (0.8–1.0 mg/mL) and kept under stirring for 4 h at 37 °C. The supernatant was filtered in […] filters and transferred to a quartz cuvette (10 mm) for spectra acquisition. Solubility was determined by linear regression used as Excel graph plots, solutions were prepared by dilutions of the original solution in methanol. Data were collected in triplicate and the mean values were used to create the graph plots. The correlation coefficient (R^2) values were between 0.9982 and 1.
The N-sulphonylhydrazone derivatives 5a–h were evaluated for their ability to inhibit both ROCK1 and ROCK2 isoforms by measuring the phosphorylation of the Ulight-RRRSLLE substrate using human recombinant enzymes expressed in Sf9[23] and Sf21^24 cells, respectively. Prior to this assay, we evaluated the solubility of these compounds in water (buffer pH 7.4) to ensure that the inhibition percentages were not influenced by the precipitation of the compounds under test conditions. The enzymatic assay was initially performed at a screening concentration of 3 μM, which is capable of guaranteeing the solubility of most of the compounds, and the obtained results are shown in Table 2.

IKK-β = biological target: T1, IKK-β (Homo sapiens, UniProt O14920); experiment: IKK-β inhibition screening; type: biochemical; conditions: screening concentration of 10 μM; data not shown
T1 sequence (O14920 1-756): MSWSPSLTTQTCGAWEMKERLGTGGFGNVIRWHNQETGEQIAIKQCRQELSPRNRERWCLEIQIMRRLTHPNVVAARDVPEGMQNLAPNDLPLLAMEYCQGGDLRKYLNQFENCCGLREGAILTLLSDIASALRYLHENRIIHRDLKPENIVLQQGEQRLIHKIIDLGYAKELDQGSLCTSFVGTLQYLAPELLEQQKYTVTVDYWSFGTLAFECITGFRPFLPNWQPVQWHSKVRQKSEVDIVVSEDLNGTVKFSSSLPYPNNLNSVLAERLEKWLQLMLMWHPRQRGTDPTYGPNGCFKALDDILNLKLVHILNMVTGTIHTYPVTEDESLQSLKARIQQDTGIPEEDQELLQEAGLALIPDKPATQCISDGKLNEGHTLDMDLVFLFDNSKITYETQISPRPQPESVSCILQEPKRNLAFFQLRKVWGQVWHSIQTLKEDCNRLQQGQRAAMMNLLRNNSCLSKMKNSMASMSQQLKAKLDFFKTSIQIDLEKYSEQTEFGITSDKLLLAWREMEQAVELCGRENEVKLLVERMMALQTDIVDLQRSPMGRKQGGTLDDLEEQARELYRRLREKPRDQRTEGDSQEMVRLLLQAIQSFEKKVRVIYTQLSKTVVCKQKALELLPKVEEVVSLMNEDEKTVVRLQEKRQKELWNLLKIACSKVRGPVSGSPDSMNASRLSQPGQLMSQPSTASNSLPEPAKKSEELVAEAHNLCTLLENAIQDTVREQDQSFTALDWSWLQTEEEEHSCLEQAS
From the text: Furthermore, considering that 2 (LASSBio-1524) was used in the structural design of this new family of ROCK inhibitors we also investigated the ability of 5b (LASSBio-2020) and 11 (LASSBio-2065) to inhibit IKK-β.

MDA-MB 231 cells [3] = experiment: Cell-based scratch assay (cell migration); design: species or system human; conditions: 10 or 30 μM, 24 h
Method: as §1
Cells were cultured in 24-well culture plates for 24 h up to 90–100% confluence. Scratched wound lines were created with the help of a 200 μl micropipette tip. […] Images were acquired with an Olympus DP71 digital camera (Olympus, Japan) and the wound area was quantified using Fiji software (based on ImageJ, http://imageJ.nih.gov/ij/) from three different experiments.
The functions of Rho-kinase include the regulation of cellular contraction, motility, morphology, polarity, division, and gene expression. Therefore, we performed a cell-based scratch assay followed by the quantification of the wounded area to analyse whether compounds 5b (LASSBio-2020) and 11 (LASSBio-2065) altered cell migration. […]

For `O=S(=O)(N/N=C/c1ccccc1)c1cccc2cnccc12` [Compound 5b, (E)-N′-benzylideneisoquinoline-5-sulphonohydrazide], the “LDH levels in culture medium / cytotoxicity in LDH assay (result in words)” value (MDA-MB 231 cells [1]) was “not altered”, the solubility at 4 h [2] was 54 µM (≈ 16.8 µg/mL) and the “IKK-β inhibition (result in words)” value (IKK-β) was “none of these N-sulphonylhydrazone derivatives was able to inhibit IKK-β”. The “effect on cell migration (result in words)” value (MDA-MB 231 cells [3]) was “inhibited MDA-MB 231 cell migration; also recorded: effective at inhibiting cell migration”.
